Measurements reported in US8822407B2, “Preparation of conjugates comprising adenine derivatives and allergenic proteins and their use for specific immunotherapy of allengenic diseases” (Universita' Degli Studi di Firenze, priority 2010, dated 2014).

Assays:
purified B cells = assay: B cell activation (tritiated thymidine incorporation); format: cell-based, human
Method: Circulating mononuclear cells (MNC) are isolated by Ficoll-Hypaque density gradient from buffy coats of healthy donors (Servizio Immunotrasfusionale e terapie cellulari, Azienda Ospedaliero Universitaria Pediatrica A. Meyer, Firenze). 200×10^6 MNC are then separated using the commercial CD19 isolation kit (Miltenyi) by the addition of 400 μl iron microbead-bound anti-CD19 monoclonal antibody followed by magnetic separation on LS column. 20×10^6 B cells are isolated by positive selection and are extensively washed by the use of calcium- and magnesium-free PBS and cultured in triplicates at the concentration of 1×10^6/ml/well in complete medium plus 10% foetal calf serum in 96-U plates. […] Plates are incubated in humidified atmosphere at 37° C. for 72 hrs and at the end 0.5 μCi tritiated thymidine is added to each well for further 16 hrs. The incorporated radioactivity is measured as already described in step (f) of Example 4.

TLR9 = target: T1, TLR9 (Homo sapiens, UniProt Q9NR96); assay: TLR9-transfected HEK293 cells, NF-kB luciferase reporter; format: cell-based; conditions: CpG-ODN 2006 1.3 μM; data not shown
T1 construct: expressed in transfected cells; host or cells: HEK293 (transient Nucleofection, Amaxa)
T1 sequence (Q9NR96 26-1032): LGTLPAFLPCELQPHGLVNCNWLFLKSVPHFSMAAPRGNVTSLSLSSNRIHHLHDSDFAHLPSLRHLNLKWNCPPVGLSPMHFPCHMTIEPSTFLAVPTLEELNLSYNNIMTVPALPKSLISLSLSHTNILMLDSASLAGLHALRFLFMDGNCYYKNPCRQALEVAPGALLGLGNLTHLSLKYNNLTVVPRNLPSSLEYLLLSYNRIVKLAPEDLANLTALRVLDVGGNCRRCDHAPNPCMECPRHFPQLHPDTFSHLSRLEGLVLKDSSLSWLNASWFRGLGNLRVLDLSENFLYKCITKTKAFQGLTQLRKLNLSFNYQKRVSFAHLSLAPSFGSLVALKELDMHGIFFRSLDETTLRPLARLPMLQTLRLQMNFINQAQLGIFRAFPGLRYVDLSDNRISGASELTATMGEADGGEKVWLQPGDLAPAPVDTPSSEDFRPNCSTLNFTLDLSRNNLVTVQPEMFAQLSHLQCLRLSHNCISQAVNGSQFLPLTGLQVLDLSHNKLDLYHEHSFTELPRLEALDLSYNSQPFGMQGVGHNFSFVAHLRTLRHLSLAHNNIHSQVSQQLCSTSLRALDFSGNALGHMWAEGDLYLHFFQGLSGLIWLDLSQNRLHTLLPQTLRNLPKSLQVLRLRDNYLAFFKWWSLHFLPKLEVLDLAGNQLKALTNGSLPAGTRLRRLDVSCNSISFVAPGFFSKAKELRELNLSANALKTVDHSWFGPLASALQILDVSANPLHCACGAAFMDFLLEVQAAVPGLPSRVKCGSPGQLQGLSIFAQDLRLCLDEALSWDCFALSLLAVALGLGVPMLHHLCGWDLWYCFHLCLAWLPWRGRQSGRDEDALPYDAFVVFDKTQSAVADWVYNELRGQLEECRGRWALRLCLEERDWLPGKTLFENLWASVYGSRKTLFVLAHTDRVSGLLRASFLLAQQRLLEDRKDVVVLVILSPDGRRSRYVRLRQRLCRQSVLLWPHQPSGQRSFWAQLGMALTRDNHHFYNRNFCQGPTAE
Method: (§1) HEK293 cells are detached by trypsin from the plastic surface of the culture bottle, extensively washed with calcium and magnesium-free PBS, counted and adjusted at the concentration 1×10^6 cells/tube in polypropylene V-bottomed tubes. After the final wash, the cells are pelleted and 100 μl transfection buffer (Amaxa) is added together with […], TLR7, TLR8 or TLR9-encoding and ELAM-1 promoter NF-kB luciferase reporter plasmids. The mixture thus obtained is transferred in special cuvettes and transient transfection is obtained in a special apparatus which is able to directly introduce genetic material into the nucleus (Nucleofection®, Amaxa GmbH). The cells are then recovered and cultured at 1×10^5/ml in 48-flat bottomed plates in E-MEM medium plus 5% foetal calf serum for 18 hrs. […] Finally the luciferase activity is measured in the cellular lysates by a commercial kit (Promega).

TLR3 = target: T2, TLR3 (Homo sapiens, UniProt O15455); assay: TLR3-transfected HEK293 cells, NF-kB luciferase reporter; format: cell-based; conditions: Poly I:C 50 μg/ml; data not shown
T2 construct: expressed in transfected cells; host or cells: HEK293 (transient Nucleofection, Amaxa)
T2 sequence (O15455 24-904): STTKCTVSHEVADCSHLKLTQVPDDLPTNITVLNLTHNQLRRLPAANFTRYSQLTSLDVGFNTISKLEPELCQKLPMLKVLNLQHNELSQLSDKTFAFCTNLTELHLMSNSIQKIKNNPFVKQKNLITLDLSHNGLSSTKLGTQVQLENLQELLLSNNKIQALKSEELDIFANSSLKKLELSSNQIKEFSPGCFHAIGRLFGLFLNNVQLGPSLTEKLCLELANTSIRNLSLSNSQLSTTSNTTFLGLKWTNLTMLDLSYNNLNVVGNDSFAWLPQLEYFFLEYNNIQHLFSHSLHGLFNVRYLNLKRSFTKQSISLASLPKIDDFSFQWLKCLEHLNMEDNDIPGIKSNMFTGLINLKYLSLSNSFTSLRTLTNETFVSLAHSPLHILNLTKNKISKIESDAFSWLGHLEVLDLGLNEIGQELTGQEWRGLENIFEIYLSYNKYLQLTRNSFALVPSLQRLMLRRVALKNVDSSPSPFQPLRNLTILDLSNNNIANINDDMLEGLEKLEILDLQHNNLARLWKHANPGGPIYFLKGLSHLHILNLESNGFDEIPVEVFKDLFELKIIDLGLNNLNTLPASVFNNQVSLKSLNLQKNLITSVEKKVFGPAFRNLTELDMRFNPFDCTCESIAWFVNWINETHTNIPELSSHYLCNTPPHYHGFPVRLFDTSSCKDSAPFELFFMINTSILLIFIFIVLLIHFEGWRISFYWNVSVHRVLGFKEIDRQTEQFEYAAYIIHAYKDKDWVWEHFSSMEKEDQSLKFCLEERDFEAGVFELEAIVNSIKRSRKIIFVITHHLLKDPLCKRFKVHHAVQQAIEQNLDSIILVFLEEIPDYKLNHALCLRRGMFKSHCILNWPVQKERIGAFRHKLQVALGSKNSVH
Method: as §1

purified CD14+ cells = assay: Cytokine production by purified CD14+ cells (ELISA of supernatants, 36 hrs); format: cell-based, human
Method: Circulating mononuclear cells (MNC) are isolated by density gradient (Ficoll-Hypaque) using buffy coats from 14 normal donors (Servizio Immunotrasfusionale e terapie cellulari, Azienda Ospedaliera Universitaria A. Meyer, Firenze). 200×10^6 MNC are separated by the use of a commercial kit (CD14 isolation kit, Miltenyi) by the addition of 400 μl anti-CD14 monoclonal antibody bound to iron beads followed by isolation on magnetic columns (LS column). 50×10^6 monocytes are recovered by positive selection and are extensively washed with calcium and magnesium-free sterile PBS and then seeded in complete medium plus 10% foetal calf serum in 24 flat bottomed plates at the concentration of 1×10^6/ml. […] The plates are incubated for 36 hrs at 37° C. in 5% CO2 humidified atmosphere and the supernatants are collected after centrifugation at 1200 rpm, aliquoted and then stored at −20° C. up to the assay. […]
For the determination of cytokines and chemokines of the innate immunity, commercial ELISAs have been used: IL-12p40 (Cytoscreen, Biosource Int, Camarillo, Calif.), IFN-alfa (Cytoscreen), TNF-alfa (Cytoscreen), IL-10 (Pharmingen), IL-6 and CXCL10 (R&D System). 100 μl/well of single supernatants are incubated in flat bottomed plates as specified by the productors and the amounts of the single cytokines are expressed as pg/ml on the basis of a reference curve by using recombinant cytokines.

BALB/C and C57BL/6 mice = assay: Modification of antibody response in sensitized mice (serum IgE); format: in vivo; conditions: mice sensitized i.p. with 10 μg in alum
Method: Ten BALB/C and ten C57BL/6 6-8 wk-old female mice (Charles River) have been intraperitoneally sensitized at day 0 and d 7 with 10 μg OVA (5 animals per strain) or OVA-conj (5 animals per strain) in the presence of alum. At d 14 and d 18 animals are stimulated intratracheally with 10 μg OVA and after 24 hrs unspecific bronchial hyperreactivity is measured administering first an aerosolized PBS solution to obtain the standard value and then an aerosolized solution containing increasing concentrations of methacolin for 3 min (6.25-12.5-25-50 mg/ml). The pletismograph in which the animal is inserted is able to monitor the values of airflow resistance.
Serum levels of total and OVA-specific IgE have been determined at d 14 and d 18 (before the intratracheal allergic stimulation) in sensitized animals by the use of commercial kits.

[1] = Table A, Donor #1, LPS, dose not printed in table (100 ng/ml elsewhere in the source)
[2] = Table A, Donor #2, LPS, dose not printed in table (100 ng/ml elsewhere in the source)
[3] = Table E, Donor #1, dose 0.1 μg/ml
[4] = Table E, Donor #2, dose 0.1 μg/ml

## CpG-ODN 2006 [reference compound]
Purified B cells; B cell proliferation, concentration 10 μg/ml
  Stimulation index (mean ± SE): 90.3 ± 7.5
Purified B cells; thymidine incorporation
  proliferation of purified B lymphocytes (in words): high levels of incorporation of radioactive thymidine
TLR9
  NF-κB expression in TLR9-transfected HEK293 cells: able to induce NF-κB expression

## Poly I:C
TLR3
  NF-κB expression in TLR3-expressing HEK293 cells: activates TLR3-expressing cells

## lipopolysaccharide [LPS, reference compound]
Purified CD14+ cells; [1]
  IL-6 production: 12905 pg/mL
  IL-10 production: 8140 pg/mL
  IL-12p40 production: 2725 pg/mL
  TNF-alfa production: 5331 pg/mL
Purified CD14+ cells; [2]
  IL-6 production: 3125 pg/mL
  IL-10 production: 1155 pg/mL
  IL-12p40 production: 6311 pg/mL
  TNF-alfa production: 4619 pg/mL
Purified CD14+ cells; Table B, dose 1 μg/ml
  IL-6 production (mean ± SE): 17.5 ± 4.9 ng/mL
  IL-10 production (mean ± SE): 7.9 ± 1.9 ng/mL
  IL-12p40 production (mean ± SE): 3.8 ± 1.7 ng/mL
  TNF-alfa production (mean ± SE): 7.6 ± 2.7 ng/mL
Purified CD14+ cells; [3]
  IL-6 production: 27235 pg/mL
  IL-10 production: 530 pg/mL
  IL-12p40 production: 5627 pg/mL
  TNF-alfa production: 3136 pg/mL
Purified CD14+ cells; [4]
  IL-6 production: 39499 pg/mL
  IL-10 production: 3000 pg/mL
  IL-12p40 production: 10522 pg/mL
  TNF-alfa production: 14061 pg/mL
Purified CD14+ cells; text to Tables A and B
  cytokine production from purified CD14+ cells (in words): relevant amounts of modulatory (IL-12) and inflammatory (TNF-alfa and IL-6) cytokines

B1: ovalbumin (protein, UniProt P01012 2-386, looked up)
Ovalbumin: GSIGAASMEFCFDVFKELKVHHANENIFYCPIAIMSALAMVYLGAKDSTRTQINKVVRFDKLPGFGDSIEAQCGTSVNVHSSLRDILNQITKPNDVYSFSLASRLYAEERYPILPEYLQCVKELYRGGLEPINFQTAADQARELINSWVESQTNGIIRNVLQPSSVDSQTAMVLVNAIVFKGLWEKAFKDEDTQAMPFRVTEQESKPVQMMYQIGLFRVASMASEKMKILELPFASGTMSMLVLLPDEVSGLEQLESIINFEKLTEWTSSNVMEERKIKVYLPRMKMEEKYNLTSVLMAMGITDVFSSSANLSGISSAESLKISQAVHAAHAEINEAGREVVGSAEAGVDAASVSEEFRADHPFLFCIKHIATNAVLFFGRCVSP
notes: ovalbumin (OVA grade V)
BALB/C and C57BL/6 mice; d14 pre-challenge
  Total IgE (mean ± SE): 966 ± 268 pg/mL
BALB/C and C57BL/6 mice; d18 post-challenge
  Total IgE (mean ± SE): 680 ± 234 pg/mL
